Results taken from patent US5840684A, “Glycopeptide antibiotic derivatives” (Eli Lilly and Company, priority 1995, dated 1998).
Converted amounts (≈) assume the structure as drawn.

Key:
[1] = test system: Leuconostoc pseudomesenteroides; assay: agar dilution MIC, lactic acid bacteria; format: cell-based; details: brain-heart infusion agar
Leuconostoc lactis = assay: agar dilution MIC, lactic acid bacteria; format: cell-based; details: Leuconostoc lactis (mean of 2), brain-heart infusion agar
Streptococcus pneumoniae = assay: mouse protection, experimentally-induced infection; format: in vivo; details: mice infected with Streptococcus pneumoniae, two doses
Pediococcus pentosaceus = assay: agar dilution MIC, lactic acid bacteria; format: cell-based; details: Pediococcus pentosaceus (mean of 2), brain-heart infusion agar
Streptococcus pyogenes = assay: mouse protection, experimentally-induced infection; format: in vivo; details: mice infected with Streptococcus pyogenes, two doses
[2] = test system: vancomycin-susceptible enterococci; assay: broth micro-dilution, mean geometric MIC; format: cell-based, Enterococcus faecium and Enterococcus faecalis; details: enterococci, 24-hour incubation
[3] = test system: vancomycin-resistant enterococci; assay: broth micro-dilution, mean geometric MIC; format: cell-based, Enterococcus faecium and Enterococcus faecalis; details: enterococci, 24-hour incubation
Lactobacillus confusus = assay: agar dilution MIC, lactic acid bacteria; format: cell-based; details: Lactobacillus confusus, brain-heart infusion agar
[4] = test system: Leuconostoc mesenteroides; assay: agar dilution MIC, lactic acid bacteria; format: cell-based; details: Leuconostoc mesenteroides (mean of 4), brain-heart infusion agar
Leuconostoc citreum = assay: agar dilution MIC, lactic acid bacteria; format: cell-based; details: brain-heart infusion agar
Pediococcus acidilacti = assay: agar dilution MIC, lactic acid bacteria; format: cell-based; details: Pediococcus acidilacti (mean of 10), brain-heart infusion agar
Entercoccus faecium 276 = assay: broth micro-dilution MIC; format: cell-based
Procedure: (§1) The MIC's were determined using a standard broth micro-dilution assay.

[5] = test system: Staphylococcus aureus X400; assay: broth micro-dilution MIC; format: cell-based
Procedure: as §1

[6] = test system: Entercoccus faecium 180-1; assay: broth micro-dilution MIC; format: cell-based
Procedure: as §1

[7] = test system: Staphylococcus aureus SA1199; assay: broth micro-dilution MIC; format: cell-based
Procedure: as §1

[8] = test system: Staphylococcus aureus SA1199A; assay: broth micro-dilution MIC; format: cell-based
Procedure: as §1

[9] = test system: Streptococcus pyogenes C203; assay: broth micro-dilution MIC; format: cell-based
Procedure: as §1

[10] = test system: Staphylococcus aureus 446; assay: broth micro-dilution MIC; format: cell-based
Procedure: as §1

[11] = test system: Staphylococcus aureus 447; assay: broth micro-dilution MIC; format: cell-based
Procedure: as §1

[12] = test system: Staphylococcus aureus SA1199B; format: cell-based
Procedure: as §1

[13] = test system: Staphylococcus aureus S13E; format: cell-based
Procedure: as §1

Entercoccus faecium 2041 = assay: broth micro-dilution MIC; format: cell-based; details: Entercoccus faecium 2041
Procedure: (§2) The formula I compounds have in vitro and in vivo activity against Gram-positive pathogenic bacteria. The MIC's were determined using a standard broth micro-dilution assay.

[14] = test system: Enterococcus gallinarum 245; assay: broth micro-dilution MIC; format: cell-based; details: Enterococcus gallinarum 245
Procedure: as §2

[15] = test system: Streptococcus pneumoniae P1; assay: broth micro-dilution MIC; format: cell-based
Procedure: as §2

[16] = test system: Staphylococcus haemolyticus 105; assay: broth micro-dilution MIC; format: cell-based
Procedure: as §2

[17] = test system: Staphylococcus haemolyticus 415; assay: broth micro-dilution MIC; format: cell-based
Procedure: as §2

[18] = test system: Staphylococcus aureus 489; assay: broth micro-dilution MIC; format: cell-based
Procedure: as §1

[19] = test system: Staphylococcus aureus X778; assay: broth micro-dilution MIC; format: cell-based
Procedure: as §1

Stapylococcus aureus = assay: mouse protection, experimentally-induced infection; format: in vivo; details: mice infected with Stapylococcus aureus, two doses
[20] = test system: Haemophilus influenzae RD; assay: broth micro-dilution MIC; format: cell-based; details: Haemophilus influenzae RD
Procedure: as §2

[21] = test system: Staphylococcus epidermidis 270; assay: broth micro-dilution MIC; format: cell-based
Procedure: as §2

| SMILES | MIC [1] [µg/mL] | MIC (Leuconostoc lactis) [µg/mL] | ED50 (Streptococcus pneumoniae) [mg/kg/2] | MIC (Pediococcus pentosaceus) [µg/mL] | ED50 (Streptococcus pyogenes) [mg/kg/2] | mean geometric MIC, Vancomycin Sensitive Strains [2] [µg/mL] | mean geometric MIC, Vancomycin Resistant Strains [3] [µg/mL] | MIC (Lactobacillus confusus) [µg/mL] | MIC [4] [µg/mL] | MIC (Leuconostoc citreum) [µg/mL] | MIC (Pediococcus acidilacti) [µg/mL] | MIC (Entercoccus faecium 276) [µg/mL] | MIC [5] [µg/mL] | MIC [6] [µg/mL] | MIC [7] [µg/mL] | MIC [8] [µg/mL] | MIC [10] [µg/mL] | MIC [11] [µg/mL] | MIC [13] [µg/mL] | MIC [16] [µg/mL] | also measured |
| --- | --- | --- | --- | --- | --- | --- | --- | --- | --- | --- | --- | --- | --- | --- | --- | --- | --- | --- | --- | --- | --- |
| CNC(CC(C)C)C(=O)NC1C(=O)NC(CC(N)=O)C(=O)NC2C(=O)NC3C(=O)NC(C(=O)NC(C(=O)O)c4cc(O)cc(O)c4-c4cc3ccc4O)C(OC3CC(C)(N)C(O)C(C)O3)c3ccc(c(Cl)c3)Oc3cc2cc(c3OC2OC(CO)C(O)C(O)C2OC2CC(C)(NCc3ccc(SC)cc3)C(O)C(C)O2)Oc2ccc(cc2Cl)C1O (stereo not shown) [Compound 41] | > 128 | 91 (≈ 52.6 µM) | 0.087 | 91 (≈ 52.6 µM) | 0.082 | 0.21 | 0.84 | 64 (≈ 37 µM) | 91 (≈ 52.6 µM) | > 128 | 71 (≈ 41.1 µM) |  |  |  |  |  |  |  |  |  |  |
| CNC(CC(C)C)C(=O)NC1C(=O)NC(CC(N)=O)C(=O)NC2C(=O)NC3C(=O)NC(C(=O)NC(C(=O)O)c4cc(O)cc(O)c4-c4cc3ccc4O)C(OC3CC(C)(N)C(O)C(C)O3)c3ccc(c(Cl)c3)Oc3cc2cc(c3OC2OC(CO)C(O)C(O)C2OC2CC(C)(NCc3ccc(Sc4ccccc4)cc3)C(O)C(C)O2)Oc2ccc(cc2Cl)C1O (stereo not shown) [Compound 108] | 32 (≈ 17.9 µM) | 8.0 (≈ 4.47 µM) | 0.041 | 23 (≈ 12.8 µM) | 0.046 | 0.04 | 0.84 | 16 (≈ 8.93 µM) | 10 (≈ 5.58 µM) |  | 12 (≈ 6.7 µM) | 0.5 (≈ 0.279 µM) | 2 (≈ 1.12 µM) | ≤ 0.06 | 2 (≈ 1.12 µM) | ≤ 0.06 | 2 (≈ 1.12 µM) | 0.5 (≈ 0.279 µM) | 1 (≈ 0.558 µM) | 2 (≈ 1.12 µM) | MIC [9]: ≤ 0.06 µg/mL; MIC [12]: 2 µg/mL (≈ 1.12 µM); MIC (Entercoccus faecium 2041): ≤ 0.06 µg/mL; MIC [14]: ≤ 0.06 µg/mL; MIC [15]: ≤ 0.06 µg/mL; MIC [17]: 1 µg/mL (≈ 0.558 µM) |
| CNC(CC(C)C)C(=O)NC1C(=O)NC(CC(N)=O)C(=O)NC2C(=O)NC3C(=O)NC(C(=O)NC(C(=O)O)c4cc(O)cc(O)c4-c4cc3ccc4O)C(OC3CC(C)(N)C(O)C(C)O3)c3ccc(c(Cl)c3)Oc3cc2cc(c3OC2OC(CO)C(O)C(O)C2OC2CC(C)(NCc3ccc4c(c3)Cc3ccccc3-4)C(O)C(C)O2)Oc2ccc(cc2Cl)C1O (stereo not shown) [Compound 32] |  | 16 (≈ 9.04 µM) | 0.039 | 16 (≈ 9.04 µM) | 0.034 | 0.089 | 0.50 | 16 (≈ 9.04 µM) | 16 (≈ 9.04 µM) | 64 (≈ 36.1 µM) | 12.1 (≈ 6.83 µM) | 0.125 (≈ 0.0706 µM) | 0.5 (≈ 0.282 µM) | ≤ 0.06 | 1 (≈ 0.565 µM) | ≤ 0.06 | 1 (≈ 0.565 µM) | 0.5 (≈ 0.282 µM) | 1 (≈ 0.565 µM) | 4 (≈ 2.26 µM) | MIC [18]: 1 µg/mL (≈ 0.565 µM); MIC [19]: 0.5 µg/mL (≈ 0.282 µM); ED50 (Stapylococcus aureus): 0.055 mg/kg/2; MIC [20]: > 64 µg/mL; MIC [21]: 1 µg/mL (≈ 0.565 µM); MIC [17]: 4 µg/mL (≈ 2.26 µM) |
